Experimental data from patent US5849760A, “2-(arylalkenyl)azacycloalkane derivatives as ligands for sigma receptors” (Institut de Recherche Jouveinal, priority 1993, dated 1998).
Counter-ions that a name gives are not always drawn.

Assays:
PCP receptors = assay: In vitro binding to PCP receptors with [^3 H]TCP; conditions: rat brain membrane
Procedure: The test of binding to phenylcyclidine receptors (PCP receptors), performed in the presence of a ligand specific for PCP receptors, [^3 H]TCP, was used to investigate any undesirable interaction of the compounds of the invention with these receptors.
The principle of this technique is to place in competition the affinity of the test substance and that of a radioactive ligand specific for the receptor being studied.
The technique consists in incubating a preparation of rat brain membrane loaded with the labeled ligand specific for the receptor under study in solutions of varying concentration of the test substance. After filtration, one measures the radioactivity of the solution, which represents the displacement of this labeled ligand by the test substance.

[1] = tested on: cysteamine-induced gastroduodenal ulcers; assay: Cysteamine-induced gastroduodenal ulcer; type: in vivo, male Sprague-Dawley rats; conditions: I.P. route, 30 min before ulcerogenic agent, dose inhibiting 50% of ulcers; for ED50: Rattus norvegicus, ip, 18 h
Procedure: The activity of the compounds of the invention with respect to the gastrointestinal tract was shown in the rat by their ability to inhibit gastroduodenal ulcers induced by the administration of cysteamine. In terms of practical methodology, the study is performed according to the method described by Robert, A., et al., in Digestion, 1974, Vol. 11, pp. 199-214, in groups of male Sprague-Dawley rats with an average weight of 200 g, to which a cysteamine hydrochloride solution is administered by subcutaneous injection in a dose of 400 mg/kg. The test compounds are administered to the animals 1 h or 30 min, respectively, before the ulcerogenic agent, depending on whether the oral or intraperitoneal route is used. Eighteen hours later, the rats are sacrificed by elongation; the stomach and duodenum are removed, rinsed with physiological salt solution, and pinned to a card. The antropyloroduodenal region is examined for ulcers, and the area of the ulcers, expressed in mm^2, is determined by multiplying the two main perpendicular axes of the lesion. Statistical analysis of the results is performed by means of Student's t-test for the ulcerated areas in comparison with a control group. The results obtained after intraperitoneal administration are presented in Table 3 and are expressed as the ED50, which is the effective dose (mg/kg) of compound inhibiting 50% of the cysteamine-induced ulcers. Igmesine is presented by way of comparison.

sigma receptors = target: T1, sigma receptors (Rattus norvegicus, UniProt Q9R0C9); assay: In vitro binding to sigma receptors with (+)[^3 H]SKF10.047; conditions: for IC50: rat brain membrane, (+)[^3 H]SKF10.047; for IC50, haloperidol / IC50, example: ratio to haloperidol, second series, rat brain membranes, [^3 H]SKF10.047
T1 construct: a preparation of rat brain membrane; from tissue; host or cells: rat brain membranes
T1 sequence (Q9R0C9 whole entry): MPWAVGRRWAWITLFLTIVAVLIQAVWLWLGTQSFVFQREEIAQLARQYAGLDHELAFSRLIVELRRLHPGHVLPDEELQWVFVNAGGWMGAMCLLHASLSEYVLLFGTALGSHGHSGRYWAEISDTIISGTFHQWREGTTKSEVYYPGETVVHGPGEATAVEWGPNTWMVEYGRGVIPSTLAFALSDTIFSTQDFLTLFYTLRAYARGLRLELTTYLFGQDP
Procedure: Experiments on binding to sigma and PCP receptors are performed with the ligands (+)[^3 H]SKF10.047 and [^3 H]TCP, respectively, by the technique described by Largent, B. L., et al. in J. Pharmacol. Exp. Ther., 1986, Vol. 238, pp. 739-748. The principle of this technique is to place in competition the affinity of the test substance and that of a radioactive ligand specific for the receptor being studied.
The results are expressed as the IC50 of the test substance, which is the concentration at which the tritiated ligand is displaced from 50% of its binding sites in the membrane preparation used.

IC50, haloperidol / IC50, example (sigma receptors) | SMILES | ED50 [1] | further results
– | C(=C\c1ccccc1)/CC1CCCN1CC1CC1 (racemic) [Example 1.1, (±)-(E)-2-cinnamyl-1-cyclopropylmethylpyrrolidine] | 0.185 mg/kg | IC50 (PCP receptors): > 10000 nM; IC50 (sigma receptors): 34.2 nM
– | C(=C\c1ccccc1)/CC1CCCN1CC1CC1 (single isomer, unassigned; (+)) [Example 1.2, (+)-(E)-2-cinnamyl-1-cyclopropylmethylpyrrolidine] | < 0.1 mg/kg | –
– | C(=C\c1ccccc1)/CC1CCCCN1CC1CC1 (single isomer, unassigned; (+)) [Example 2A.2, (+)-(E)-2-cinnamyl-1-(cyclopropylmethyl)piperidine] | < 0.1 mg/kg | –
– | CCC(C/C=C/c1ccccc1)(c1ccccc1)N(C)CC1CC1 (single isomer, unassigned; (+)) [Igmesine, (+)-N-(cyclopropylmethyl)-1-ethyl-N-methyl-1,4-diphenyl-3-butene-1-ylaminehydrochloride, reference compound] | 5.95 mg/kg | –
1.6 | C(=C\c1ccccc1)/CC1CCCN1CC1CC1 (single isomer, unassigned; (-)) [Example 1.3, (-)-(E)-2-cinnamyl-1-cyclopropylmethylpyrrolidine] | – | ED50, cysteamine-induced ulcer ([1]; 1080 min): < 0.100 mg/kg
1.4 | C(=C\c1ccccc1)/CC1CCCCN1CC1CC1 (single isomer, unassigned; (-)) [Example 2A.3, (-)-(E)-2-cinnamyl-1-(cyclopropylmethyl)piperidine] | – | –
– | C(=C\c1ccccc1)/CC1CCCN1CC1CCC1 (stereo not drawn) [Example 1.4, (E)-2-cinnamyl-1-cyclobutylmethylpyrrolidine] | 0.137 mg/kg | IC50 (PCP receptors): > 10000 nM; affinity for sigma receptors (sigma receptors; in words): strong affinity for sigma receptors; IC50 (sigma receptors): 4.52 nM
1.3 | C(=C\c1ccccc1)/CC1CCCN1CCc1ccccc1 (stereo not drawn) [Example 1.6, (E)-2-cinnamyl-1-phenethylpyrrolidine] | – | –
– | C(=C\c1ccccc1)/CC1CCCCN1CC1CC1 (stereo not drawn) [Example 2A.1, (E)-2-cinnamyl-1-cyclopropylmethylpiperidine] | 0.1 mg/kg | –
2.3 | C(=C\c1ccccc1)/CC1CCCCN1CC1CCC1 (stereo not drawn) [Example 2A.4, (E) -2-cinnamyl-1-cyclobutylmethylpiperidine] | – | –
1.0 | C(=C\c1ccccc1)/CC1CCCCN1CCc1ccccc1 (stereo not drawn) [Example 2A.5, (E)-2-cinnamyl-1-(phenethyl)piperidine] | – | –
– | C(=C/c1ccccc1)/CC1CCCCN1CC1CC1 (stereo not drawn) [Example 2A.6, (Z)-2-cinnamyl-1-cyclopropylmethylpiperidine] | < 0.1 mg/kg | IC50 (PCP receptors): > 10000 nM; IC50 (sigma receptors): 34.3 nM
1.6 | Fc1ccc(/C=C\CC2CCCCN2CC2CC2)cc1 (stereo not drawn) [Example 2B.2, (Z)-2-(p-fluorocinnamyl)-1-cyclopropylmethylpiperidine] | – | –
0.8 | FC(F)(F)c1ccc(/C=C/CC2CCCCN2CC2CC2)cc1 (stereo not drawn) [Example 2G, (E)-2-(p-trifluoromethylcinnamyl)-1-cyclopropylmethylpiperidine] | – | –
4.3 | C(=C/c1ccccc1)/CC1CCCN1CC1CC1 (stereo not drawn) [Example 2K, (Z)-2-cinnamyl-1-cyclopropylmethylpyrrolidine] | – | –
1.1 | Fc1ccc(/C=C/CC2CCCN2CC2CC2)cc1 (stereo not drawn) [Example 2L, (E)-2-(p-fluorocinnamyl)-1-cyclopropylmethylpyrrolidine] | – | –
